Measurements from patent publication US12558428B2, “Heterobifunctional compounds and their use in treating disease” (Halda Therapeutics OpCo, Inc., priority 2024, dated 2026).
Like-named read-outs stand apart in the source and are kept apart here.

Tests used:
Format in all cases: cell-based
[1] = tested on: T-Rex 293 cells having increased expression of estrogen receptor alpha protein; assay: Cellular growth inhibition assay, T-Rex 293 cells, (+) doxycycline; conditions: T-REx-293, 72 h, 72 hours
Procedure: (§1) Exemplary compounds were tested for the ability to inhibit the proliferation of the following types of cells: (i) a T-Rex 293 cell line having increased expression of estrogen receptor alpha protein from exposure to doxycycline and (ii) a T-Rex 293 cell line lacking increased expression of estrogen receptor alpha protein.
(§2) The following types of cells were prepared for this experiment: (i) a T-Rex 293 cell line having increased expression of estrogen receptor alpha protein from exposure to doxycycline and (ii) a T-Rex 293 cell line lacking increased expression of estrogen receptor alpha protein. The ability of the test compounds to inhibit proliferation of the foregoing cell types was evaluated according to the procedures set forth below.
(§3) The doxycycline-inducible estrogen receptor alpha protein expressing cell line was established using the following protocol: T-Rex 293 cells were purchased from Invitrogen (Cat #R71007) and transfected using Lipofectamine 2000 with the wild-type estrogen receptor alpha protein sequence cloned into the pcDNA4/TO vector. Transfected cells were selected using 400 μg/mL Zeocin (Invitrogen Cat #R25001). Following selection, single clones were raised and maintained in Dulbecco's Modified Eagle Medium (DMEM) supplemented with 10% w/w Tetracycline-free fetal bovine serum (FBS) and 250 μg/mL Zeocin. Clones were analyzed for expression of estrogen receptor alpha protein in the presence and absence of 3 ng/mL doxycycline (Sigma Cat #D9891), and a single doxycycline-inducible clone (hereinafter “SC”) was selected for use in downstream assays.
(§4) The SC cells were seeded on poly-D-lysine coated, black clear-bottom 384-well plates at 2500/well, in 25 μL Phenol Red Free Dulbecco's Modified Eagle Medium (DMEM) supplemented with 10% w/w charcoal-dextran treated fetal bovine serum (FBS) and 1% w/w pen-strep, with or without 3 ng/mL doxycycline. Pen-Strep is a commercially available mixture of penicillin G and streptomycin, which is used in mammalian cell culture media to prevent bacterial contamination. Phenol Red Free Dulbecco's Modified Eagle Medium (DMEM) supplemented with 10% w/w charcoal-dextran treated fetal bovine serum (FBS) and 1% w/w pen-strep, with or without 3 ng/mL doxycycline is herein referred to as Treatment Medium. Following seeding of cells in the plates, the plates were spun at 300×g for 30 seconds, then equilibrated to room temperature for 30 minutes, and then deposited in a humidified tissue culture incubator maintained at 37° C. with 5% CO2.
(§5) At 24 hours after seeding of the cells, dilutions of test compound were prepared in DMSO and dissolved in Treatment Medium, to achieve a final DMSO concentration of 0.5% w/w, thereby providing the Test Compound Solution. A 25 μL aliquot of the Test Compound Solution was added to cells in the well plates. An equal volume of a solution containing DMSO and Treatment Medium was used as a negative control. Following treatment of cells with Test Compound Solution or said equal volume of a solution containing DMSO and Treatment Medium, the plates were spun at 300×g for 30 seconds, and then left in an incubator for 72 hours.
(§6) At the end of the treatment duration, cell viability was quantified with CellTiter-Glo 2.0 reagent (Promega Cat #G9243). For this purpose, plates were equilibrated to room temperature for 30 minutes, and then 25 μL of CellTiter-Glo 2.0 reagent was added to cells in the plate wells. Plates were then agitated on a shaker for two minutes at 500 rpm and subsequently incubated at room temperature for 10 minutes. Following incubation, the plates were spun at 3000×g for 30 seconds, then sealed with an optical adhesive cover, and luminescence readings were measured with an EnVision Plate Reader (Perkin Elmer).
(§7) Data was normalized using zero luminescence for baseline. […]

[2] = tested on: T-Rex 293 cells lacking increased expression of estrogen receptor alpha protein; assay: Cellular growth inhibition assay, T-Rex 293 cells, (−) doxycycline; conditions: T-REx-293, 72 h, 72 hours
Procedure: as §1, §2, §3, §4, §5, §6, §7

[3] = tested on: MCF7 cells (ATCC #HTB-22); assay: Cellular growth inhibition assay, MCF7 cells purchased from ATCC; conditions: Homo sapiens, MCF7, 144 h, Table 8-A; MCF7 cells purchased from ATCC; six days; CellTiter-Glo; read-out: GI50
Procedure: Exemplary compounds were tested for the ability to inhibit the proliferation of MCF7 cells.
MCF7 cells (ATCC #HTB-22 or ECACC #86012803) were cultured in RPMI 1640 medium supplemented with 10% heat-inactivated fetal bovine serum, 1% pen-strep, and 0.2 U/ml insulin. Cells were seeded in 25 μL of RPMI 1640 medium supplemented with 10% heat-inactivated fetal bovine serum, 1% pen-strep, 0.2 U/ml insulin in poly-D-lysine treated, black clear-bottom 384-well plates at 225 cells/well for MCF7 cells purchased from ECACC or 1,500 cells/well for MCF7 cells purchased from ATCC. Following seeding, plates were spun at 300×g for 30 seconds and cultured at 37° C. with 5% CO2 in a humidified tissue culture incubator.
At 24 hours after seeding, compounds were titrated in 100% DMSO and diluted in RPMI 1640 medium supplemented with 10% heat-inactivate fetal bovine serum, 1% pen-strep, and 0.2 U/ml insulin. A 25 μL aliquot of the compound/media mixture was added to cells, bringing the total volume in each well to 50 μL. An equal volume of DMSO without compound was used as a negative control. After treatment, plates were spun at 300×g for 30 seconds, then cultured at 37° C. with 5% CO2 for six days in a humidified tissue culture incubator.
On Day 6 of treatment, cell viability was quantified with CellTiter-Glo 2.0 reagent (Promega). Plates were equilibrated to room temperature for 30 minutes, then 25 μL of CellTiter-Glo 2.0 reagent was added to cells, bringing the total volume in each well to 75 μL. After reagent was added, plates were mixed on a shaker for two minutes at 500 rpm and then incubated at room temperature for 10 minutes. Following incubation, plates were spun at 3,000×g for 30 seconds, sealed with an optical adhesive cover, and luminescence readings were measured with an EnVision Plate Reader.
Data was normalized to 0 luminescence for baseline. A four-parameter, non-linear regression curve fit was applied to dose-response data in GraphPad Prism data analysis software to determine the half maximal growth inhibitory concentration (GI50) for each compound.

[4] = T-Rex 293 cells with doxycycline-induced ERα expression, CellTiter-Glo 2.0, read-out: (+) Dox TRex ERa (GI50)
[5] = T-Rex 293 cells without doxycycline, CellTiter-Glo 2.0, read-out: (−) Dox TRex ERa (GI50)
[6] = Table 7-A, T-Rex 293 cells with doxycycline (increased ERα expression), CellTiter-Glo, read-out: (+) Dox GI50
[7] = Table 7-A, T-Rex 293 cells without doxycycline (lacking increased ERα expression), CellTiter-Glo, read-out: (−) Dox GI50

| GI50 [3] | Compound | GI50 [1, 4] | GI50 [2, 5] | GI50 [1, 6] | GI50 [2, 7] |
| --- | --- | --- | --- | --- | --- |
| 50 to 500 nM | Cc1sc2c(c1C)C(c1ccc(N3CCC(CN4CCN(c5ccc([C@@H]6c7ccc8n[nH]cc8c7C[C@@H](C)N6CC(F)(F)F)nc5)CC4)CC3)cc1)=N[C@@H](C)c1nnc(C)n1-2 [I-27, (S)-2,3,6,9-tetramethyl-4-(4-(4-((4-(6-((6S,8R)-8-methyl-7-(2,2,2-trifluoroethyl)-6,7,8,9-tetrahydro-2H-pyrazolo[4,3-f]isoquinolin-6-yl)pyridin-3-yl)piperazin-1-yl)methyl)piperidin-1-yl)phenyl)-6H-thieno[3,2-f][1,2,4]triazolo[4,3-a][1,4]diazepine] | < 50 nM | 500 to 2500 nM | – | – |
| 50 to 500 nM | Cc1sc2c(c1C)C(c1ccc(C3CN(C(=O)C4CCN(c5ccc([C@@H]6c7ccc(O)cc7CC[C@@H]6c6ccccc6)cc5)CC4)C3)cc1)=N[C@@H](C)c1nnc(C)n1-2 [III-142] | – | – | 50 to 500 nM | 50 to 500 nM |
| < 50 nM | Cc1sc2c(c1C)C(c1ccc(N3CCC(O)(CN4CCN(c5ccc([C@@H]6c7ccc(O)cc7CC[C@@H]6c6ccccc6F)c(F)c5)CC4)CC3)cc1)=N[C@@H](C)c1nnc(C)n1-2 [III-291] | – | – | < 50 nM | 500 to 2500 nM |
| 500 to 2500 nM | Cc1sc2c(c1C)C(c1ccc(C#CC3CC4(CCN(c5ccc([C@H]6c7ccc(O)cc7CC[C@H]6c6ccccc6)cc5)CC4)C3)cc1)=N[C@@H](C)c1nnc(C)n1-2 [III-18] | – | – | > 2500 nM | > 2500 nM |
| < 50 nM | Cc1sc2c(c1C)C(c1ccc(N3CCC(N4CCN(CCOc5ccc([C@@H]6c7ccc(O)cc7CC[C@@H]6c6ccccc6)cc5)CC4)CC3)cc1)=NC(Cc1ncco1)c1nnc(C)n1-2 (some centres unmarked) [III-35] | – | – | < 50 nM | 50 to 500 nM |
| 50 to 500 nM | Cc1sc2c(c1C)C(c1ccc(N3CC4(CCC(O)(CN5CCC(c6cc(F)c([C@H]7c8ccc(O)cc8CC[C@H]7c7ccc(F)cc7)c(F)c6)CC5)CC4)C3)cc1)=N[C@@H](C)c1nnc(C)n1-2 [III-267] | – | – | 50 to 500 nM | > 2500 nM |
| 50 to 500 nM | COc1cc([C@@H]2c3ccc(O)cc3CC[C@@H]2c2ccc(F)cc2)ccc1N1CCN(CC2(O)CCN(c3ccc(C4=N[C@@H](C)c5nnc(C)n5-c5sc(C)c(C)c54)cc3)CC2)CC1 [III-255] | – | – | < 50 nM | 500 to 2500 nM |
| 500 to 2500 nM | Cc1sc2c(c1C)C(c1ccc(CC3CC4(CCCN(c5ccc([C@H]6c7ccc(O)cc7CC[C@H]6c6ccccc6)cc5)C4)C3)cc1)=N[C@@H](C)c1nnc(C)n1-2 (some centres unmarked) [III-13] | – | – | 500 to 2500 nM | > 2500 nM |
| < 50 nM | Cc1sc2c(c1C)C(c1ccc(N3CCC(O)(CN4CCN(c5ccc([C@@H]6c7ccc(O)cc7CC[C@@H]6c6ccccc6)nn5)CC4)CC3)cc1)=N[C@@H](Cc1ncco1)c1nnc(C)n1-2 [III-226] | – | – | < 50 nM | 50 to 500 nM |
| 50 to 500 nM | Cc1sc2c(c1C)C(c1ccc(N3CCN(CC4CCN(c5ncc([C@H]6c7ccc(O)cc7CC[C@H]6c6ccccc6)cn5)CC4)CC3)cc1)=N[C@@H](Cc1ncco1)c1nnc(C)n1-2 [III-127] | – | – | 50 to 500 nM | 500 to 2500 nM |
| 50 to 500 nM | Cc1sc2c(c1C)C(c1ccc(N3CCC(O)(CN4CCN(c5ccc([C@@H]6c7ccc(O)cc7CC[C@@H]6c6ccccc6)cc5)CC4)CC3)cc1)=N[C@@H](C)c1nnc(C)n1-2 [III-118] | – | – | < 50 nM | 500 to 2500 nM |
| 50 to 500 nM | Cc1sc2c(c1C)C(c1ccc(Cl)cc1)=N[C@@H](CC(=O)NCCCCOCCOc1ccc(C(=O)c3c(-c4ccc(O)cc4)sc4cc(O)ccc34)cc1)c1nnc(C)n1-2 [I-17, (S)-2-(4-(4-chlorophenyl)-2,3,9-trimethyl-6H-thieno[3,2-f][1,2,4]triazolo[4,3-a][1,4]diazepin-6-yl)-N-(4-(2-(4-(6-hydroxy-2-(4-hydroxyphenyl)benzo[b]thiophene-3-carbonyl)phenoxy)ethoxy)butyl)acetamide] | 500 to 2500 nM | 500 to 2500 nM | – | – |
| 50 to 500 nM | Cc1sc2c(c1C)C(c1ccc(N3CCC(C(=O)N4CCN(c5ccc(C6=C(c7ccc(Cl)cc7Cl)CCCc7cc(C(=O)O)ccc76)cc5)CC4)CC3)cc1)=N[C@@H](C)c1nnc(C)n1-2 [IV-7] | – | – | 50 to 500 nM | 500 to 2500 nM |
| < 50 nM | CCN(CCCCCCCCc1cc(Cl)cc(NC(=O)NCc2ccc3c(c2)CN(C2CCC(=O)NC2=O)C3=O)c1)CCOc1ccc(C(=O)c2c(-c3ccc(O)cc3)sc3cc(O)ccc23)cc1 (centres unmarked) [II-3] | – | – | – | – |
| – | COc1cc(N2CCN(CC3(O)CCN(c4ccc(C5=N[C@@H](C)c6nnc(C)n6-c6sc(C)c(C)c65)cc4)CC3)CC2)c(F)cc1[C@H]1c2ccc(O)cc2CC[C@H]1c1ccc(F)cc1 [III-319] | – | – | < 50 nM | 50 to 500 nM |
| < 50 nM | CCN(CCOCCOCCOCCOCCOCCOCCCCCCCCc1cc(Cl)cc(NC(=O)NCc2ccc3c(c2)CN(C2CCC(=O)NC2=O)C3=O)c1)CCOc1ccc(C(=O)c2c(-c3ccc(O)cc3)sc3cc(O)ccc23)cc1 (centres unmarked) [II-1] | – | – | – | – |
| – | COc1cc(N2CCN(CC3(O)CCN(c4ccc(C5=N[C@@H](C)c6nnc(C)n6-c6sc(C)c(C)c65)cc4)CC3)CC2)ccc1[C@@H]1c2ccc(O)cc2CC[C@@H]1c1ccc(F)cc1F (single isomer, unassigned) [III-334] | – | – | < 50 nM | 500 to 2500 nM |
| – | COc1cc(N2CCN(CC3CCN(c4ccc(C5=N[C@@H](C)c6nnc(C)n6-c6sc(C)c(C)c65)cc4)CC3)CC2)ccc1[C@H]1c2ccc(O)cc2CC[C@H]1c1ccc(C)cc1 [III-329] | – | – | 50 to 500 nM | 50 to 500 nM |
